Here are results for seven compounds from PMC10387993, “New pyrimidine-N-β-D-glucosides: synthesis, biological evaluation, and molecular docking investigations” (Turkish Journal of Chemistry, 2023).

As a reminder, the GI50 is the concentration giving 50% growth inhibition. A lower GI50 goes with more potent growth inhibition. The term IC50 denotes the concentration that gives 50% inhibition. Usually MIC stands for the smallest concentration in the dilution series that meets the test's criterion for growth inhibition.

≈ marks a conversion by molar mass, not a printed value. Like-named read-outs stand apart in the source and are kept apart here.

Common to all, as to type: cell-based
Data set [1] can be described thus: in vitro. The note with it: human, LC50. As to the method: (§1) The cell lines were cultured in a cell medium (Dulbecco’s modified eagle’s or RPMI 1640) enriched with 10% (v/v) fetal bovine serum and 2% (v/v) Penicillin-Streptomycin (10,000 U/mL). First, old medium was removed out of the flask when the cells reached approximately 80% confluence. Next, cells were taken from the flasks surface using trypsin-EDTA solution and then subjected to centrifugation. Following, the cell pellet was suspended with fresh media and was inoculated into wells.
(§2) A cell suspension containing approximately 1 × 10^4 cells in 100 μL was seeded into the wells of 96-well culture plates. […]. The final volume of the wells was set to 200 μL by medium. Cell proliferation assay was evaluated by MTT (yellow tetrazolium MTT (3-(4,5-dimethylthiazolyl-2)-2,5-diphenyltetrazolium bromide) methods. Briefly, an MTT stock solution (5 mg of MTT/mL of distilled water) was filtered and kept at −20 °C until use. The cells were exposed to an MTT reagent (consisting of one parts of MTT stock solutions and nine parts of fresh RPMI 1640 without phenol red) for 4 h to form MTT formazan dye followed by the dye dissolved in DMSO with Sorenson’s buffer for 30 min at room temperature and then the plate was measured at 560 nm, with 690 nm as a reference interval, using a microplate reader. Each experiment was repeated at least three times for each cell line.
(§3) IC50 value is a concentration that inhibits half of the cells in vitro. The half maximal inhibitory concentration (IC50) of the test and control compounds was calculated using XLfit5 or excel spreadsheet and represent in μM at 95% confidence intervals. The proliferation assay results were expressed as the percent inhibition according to the following formula: % Inhibition = [1 - (Absorbance of Treatments /Absorbance of DMSO) × 100]. Three dose response parameters (GI50, TGI, LC50) were calculated according to the following formulas using the absorbance measurements of time zero (Tz), control growth (C), and test growth in the presence of drug (Ti). Growth inhibition of 50% (GI50) was calculated from [(Ti-Tz)/(C-Tz)] × 100 = 50, which is the drug concentration resulting in a 50% reduction in the net growth increase in control cells during the drug incubation. The drug concentration resulting in total growth inhibition (TGI) was calculated from Ti = Tz. The LC50 indicating a net loss of cells following treatment was calculated from [(Ti-Tz)/Tz] × 100 = −50.

In data set [2] the test system is normal FL cells. The data set is described as follows: cells. Conditions: FL normal cells, MTT; for IC50: read-out: IC50; for IC (total growth inhibition): read-out: TGI. How it is done:
as §1, §2, §3

Data set [3] has as its system S. aureus MSSA ATCC 29213. The data set is described as follows: Microdilution MIC assay. Conditions: S. aureus MSSA ATCC 29213, 24 h at 35 °C. The procedure, abridged:
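Compounds were serially diluted in microwells and inoculated with each strain. After 24 h incubation at 35 °C, growth was scored visually. The MIC was the lowest concentration showing no turbidity.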
A general note: In broth dilution the organism is exposed to a series of concentrations in liquid medium.

Data set [4] in a line: LDH cytotoxic activity assay, HT29. The note with it: human, HT29 cells; for cytotoxicity at 24 h, 25 μg/mL: HT29, 25 μg/mL; for cytotoxicity at 24 h, 50 μg/mL: HT29, 50 μg/mL; for cytotoxicity at 24 h, 75 μg/mL: HT29, 75 μg/mL; for cytotoxicity at 24 h, 100 μg/mL: HT29, 100 μg/mL. How it is done:
as §1
(§4) Approximately 5 × 10^3 cells in 100 μL were placed into 96-well plates as triplicates and treated with 25, 50, 75, and 100 μg/mL concentrations of test compounds at 37 °C with 5% CO2 for 24 h. LDH activity was obtained by determining absorbance at 492–630 nm using a microplate reader.

The nature of data set [5]: LDH cytotoxic activity assay, C6. The note with it: rat, C6 glioma cells; for cytotoxicity at 24 h, 25 μg/mL: C6, 25 μg/mL; for cytotoxicity at 24 h, 50 μg/mL: C6, 50 μg/mL; for cytotoxicity at 24 h, 75 μg/mL: C6, 75 μg/mL; for cytotoxicity at 24 h, 100 μg/mL: C6, 100 μg/mL. As to the method: as §1, §4
Setting [6] is: Staphylococcus aureus, 24 h, read-out: MIC.

For the compound `Cc1ccccc1-c1cc(-c2ccccn2)nc(N[C@@H]2O[C@H](CO)[C@@H](O)[C@H](O)[C@H]2O)n1` [Compound 1, N-[4-(2-methylphenyl)-6-pyridin-2-ylpyrimidin-2-yl]-β-D-glucopyranosylamine], the LC50 (concentration causing 50% net cell loss) in data set [1] was > 500 µg/mL. Also, in data set [2], the GI50 came to 3.1 µg/mL (≈ 7.3 µM), the IC50 is 77.4 µg/mL (≈ 182 µM) and the IC (total growth inhibition) is 81.6 µg/mL. Moreover, in data set [3] (setting [6]), the MIC stood at 500 µg/mL (≈ 1180 µM). In data set [4], this compound returned a cytotoxicity at 24 h, 25 μg/mL of 29.3%; a cytotoxicity at 24 h, 50 μg/mL of 48%; a cytotoxicity at 24 h, 75 μg/mL of 68.9%; a cytotoxicity at 24 h, 100 μg/mL of 83.7%. In addition, in data set [5], the cytotoxicity at 24 h, 25 μg/mL is 28.7%; the cytotoxicity at 24 h, 50 μg/mL was 28.7%; the cytotoxicity at 24 h, 75 μg/mL came out at 72.1%; the cytotoxicity at 24 h, 100 μg/mL came out at 97.8%.
Regarding `CC(=O)OC[C@H]1O[C@@H](Nc2nc(-c3cccc(C)c3)cc(-c3ccccn3)n2)[C@H](OC(C)=O)[C@@H](OC(C)=O)[C@@H]1OC(C)=O` [Compound 13, 2,3,4,6-tetra-O-acetyl-N-[4-(3-methylphenyl)-6-pyridin-2-ylpyrimidin-2-yl]-β-D-glucopyranosylamine], in data set [1], the LC50 (concentration causing 50% net cell loss) was > 500 µg/mL. In data set [2], the GI50 stood at 1.63 µg/mL (≈ 2.75 µM), the IC50 was found to be 18.2 µg/mL (≈ 30.7 µM) and the IC (total growth inhibition) was determined as 19.1 µg/mL. Moreover, the MIC in data set [3] was 125 µg/mL (≈ 211 µM). In addition, in data set [3] (setting [6]), the MIC was in the range of 62.5 to 125 µg/mL (≈ 105 to 211 µM). For the same compound, in data set [4], the cytotoxicity at 24 h, 25 μg/mL stood at 31.7%; the cytotoxicity at 24 h, 50 μg/mL amounted to 45.5%; the cytotoxicity at 24 h, 75 μg/mL is 66.4%; the cytotoxicity at 24 h, 100 μg/mL came out at 79.2%. Further, in data set [5], the cytotoxicity at 24 h, 25 μg/mL was 15%; the cytotoxicity at 24 h, 50 μg/mL stood at 51.2%; the cytotoxicity at 24 h, 75 μg/mL is 77.1%; the cytotoxicity at 24 h, 100 μg/mL was 98.3%.
Consider `CC(=O)OC[C@H]1O[C@@H](Nc2nc(-c3ccncc3)cc(-c3ccccc3C)n2)[C@H](OC(C)=O)[C@@H](OC(C)=O)[C@@H]1OC(C)=O` [Compound 12, 2,3,4,6-tetra-O-acetyl-N-[4-(2-methylphenyl)-6-pyridin-4-ylpyrimidin-2-yl]-β-D-glucopyranosylamine], for which, in data set [1], the LC50 (concentration causing 50% net cell loss) is > 500 µg/mL. In data set [2], halving of growth (GI50) required 3.68 µg/mL (≈ 6.21 µM), the IC50 was > 500 µg/mL and the IC (total growth inhibition) is > 500 µg/mL. Also, the MIC in data set [3] (setting [6]) came out at 1000 µg/mL (≈ 1690 µM). In data set [4], the cytotoxicity at 24 h, 25 μg/mL is 30.7%; the cytotoxicity at 24 h, 50 μg/mL amounted to 41.9%; the cytotoxicity at 24 h, 75 μg/mL was 62.6%; the cytotoxicity at 24 h, 100 μg/mL stood at 77.6%. In data set [5], this compound came in with a cytotoxicity at 24 h, 25 μg/mL of 21.1%; a cytotoxicity at 24 h, 50 μg/mL of 46.7%; a cytotoxicity at 24 h, 75 μg/mL of 75.2%; a cytotoxicity at 24 h, 100 μg/mL of 87.4%.
On to `CC(=O)OC[C@H]1O[C@@H](Nc2nc(-c3ccncc3)cc(-c3cccc(C)c3)n2)[C@H](OC(C)=O)[C@@H](OC(C)=O)[C@@H]1OC(C)=O` [Compound 15, 2,3,4,6-tetra-O-acetyl-N-[4-(3-methylphenyl)-6-pyridin-4-ylpyrimidin-2-yl]-β-D-glucopyranosylamine], for which the LC50 (concentration causing 50% net cell loss) in data set [1] is > 500 µg/mL. Also, in data set [2], the GI50 was 26.7 µg/mL (≈ 45 µM), the IC50 is > 500 µg/mL and the IC (total growth inhibition) was > 500 µg/mL. Moreover, in data set [3] (setting [6]), the MIC was 250 µg/mL (≈ 422 µM). In data set [4], this compound showed a cytotoxicity at 24 h, 25 μg/mL of 23.8%; a cytotoxicity at 24 h, 50 μg/mL of 45%; a cytotoxicity at 24 h, 75 μg/mL of 62.6%; a cytotoxicity at 24 h, 100 μg/mL of 78.6%. Also, in data set [5], the cytotoxicity at 24 h, 25 μg/mL was found to be 20.4%; the cytotoxicity at 24 h, 50 μg/mL stood at 55%; the cytotoxicity at 24 h, 75 μg/mL came out at 77.1%; the cytotoxicity at 24 h, 100 μg/mL came to 83.3%.
As to `CC(=O)OC[C@H]1O[C@@H](Nc2nc(-c3cccnc3)cc(-c3cccc(C)c3)n2)[C@H](OC(C)=O)[C@@H](OC(C)=O)[C@@H]1OC(C)=O` [Compound 14, 2,3,4,6-tetra-O-acetyl-N-[4-(3-methylphenyl)-6-pyridin-3-ylpyrimidin-2-yl]-β-D-glucopyranosylamine], the LC50 (concentration causing 50% net cell loss) in data set [1] is > 500 µg/mL. Also, in data set [2], the GI50 was found to be 118 µg/mL (≈ 199 µM), the IC50 was > 500 µg/mL and the IC (total growth inhibition) was > 500 µg/mL. In data set [3], the MIC came out at 125 µg/mL (≈ 211 µM). In data set [3] (setting [6]), the MIC fell in the range of 62.5 to 125 µg/mL (≈ 105 to 211 µM). For the same compound, in data set [4], the cytotoxicity at 24 h, 25 μg/mL was found to be 21%; the cytotoxicity at 24 h, 50 μg/mL was found to be 44.6%; the cytotoxicity at 24 h, 75 μg/mL came out at 61.8%; the cytotoxicity at 24 h, 100 μg/mL is 72.2%. Further, in data set [5], the cytotoxicity at 24 h, 25 μg/mL amounted to 18.4%; the cytotoxicity at 24 h, 50 μg/mL turned out to be 35.3%; the cytotoxicity at 24 h, 75 μg/mL turned out to be 70.2%; the cytotoxicity at 24 h, 100 μg/mL was 86.7%.
For the compound `CC(=O)OC[C@H]1O[C@@H](Nc2nc(-c3ccccn3)cc(-c3ccccc3C)n2)[C@H](OC(C)=O)[C@@H](OC(C)=O)[C@@H]1OC(C)=O` [Compound 10, 2,3,4,6-tetra-O-acetyl-N-[4-(2-methylphenyl)-6-pyridin-2-ylpyrimidin-2-yl]-β-D-glucopyranosylamine], the LC50 (concentration causing 50% net cell loss) in data set [1] is > 500 µg/mL. Further, in data set [2], the GI50 came out at 22.8 µg/mL (≈ 38.4 µM), the IC50 was > 500 µg/mL and the IC (total growth inhibition) was > 500 µg/mL. The MIC in data set [3] (setting [6]) was > 1000 µg/mL. In data set [4], the cytotoxicity at 24 h, 25 μg/mL was 29.4%; the cytotoxicity at 24 h, 50 μg/mL was 51.8%; the cytotoxicity at 24 h, 75 μg/mL was 64.5%; the cytotoxicity at 24 h, 100 μg/mL was 95.2%. In data set [5], this compound registered a cytotoxicity at 24 h, 25 μg/mL of 22.8%; a cytotoxicity at 24 h, 50 μg/mL of 54.3%; a cytotoxicity at 24 h, 75 μg/mL of 77.1%; a cytotoxicity at 24 h, 100 μg/mL of 93.5%.
Consider `CC(=O)OC[C@H]1O[C@@H](Nc2nc(-c3ccc(C)cc3)cc(-c3ccccn3)n2)[C@H](OC(C)=O)[C@@H](OC(C)=O)[C@@H]1OC(C)=O` [Compound 16, 2,3,4,6-tetra-O-acetyl-N-[4-(4-methylphenyl)-6-pyridin-2-ylpyrimidin-2-yl]-β-D-glucopyranosylamine], for which the LC50 (concentration causing 50% net cell loss) in data set [1] was > 500 µg/mL. Besides, in data set [2], growth was halved (GI50) at 1.71 µg/mL (≈ 2.89 µM), the IC50 came to 6.31 µg/mL (≈ 10.6 µM) and the IC (total growth inhibition) was found to be 6.44 µg/mL. Besides, the MIC in data set [3] (setting [6]) worked out at 1000 µg/mL (≈ 1690 µM). Besides, in data set [4], the cytotoxicity at 24 h, 25 μg/mL was 26.4%; the cytotoxicity at 24 h, 50 μg/mL worked out at 34.4%; the cytotoxicity at 24 h, 75 μg/mL is 48.6%; the cytotoxicity at 24 h, 100 μg/mL was 70.2%. In data set [5], this compound returned a cytotoxicity at 24 h, 25 μg/mL of 17.1%; a cytotoxicity at 24 h, 50 μg/mL of 28.9%; a cytotoxicity at 24 h, 75 μg/mL of 63.2%; a cytotoxicity at 24 h, 100 μg/mL of 84.7%.
